Test results from patent US20250388589A1, “TRICYCLIC HETEROCYCLIC DERIVATIVES, COMPOSITIONS AND USES THEREOF” (Danatlas Pharmaceuticals Co., Ltd., priority 2022, published 2025).

How the values were obtained:
[1] = biological target: hPARG (C-terminal His6-tag) (Homo sapiens (Human), UniProt Q86W56); assay: PARG Enzymatic Activity Assay (HTRF); type: biochemical; conditions: hPARG 65 pM final, biotinylated-NAD ribosylated PARP1 8 nM final
Outline: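 E. coli-expressed enzyme (65 pM final) preincubated 60 min RT with compounds (10-point 4-fold dilution, duplicate) in 50 mM Tris pH 7.4, 3 mM EDTA, 1 mM DTT, 50 mM KCl, 0.01% Tween 20. Biotinylated-NAD ribosylated PARP1 substrate (8 nM final) reacted 10 min RT; Eu-streptavidin/anti-6HIS-XL665 HTRF read 665/620 nm after 60 min. IC50 from 4-parameter Hill fit.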

Kuramochi cell line = assay: Cell Viability Assay (Cell Titer-Glo, 7 days); type: cell-based; conditions: 168 h, Kuramochi cells, 7 days incubation, read-out: PARG Cell viability (IC50)
Outline: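 Kuramochi cells in RPMI with 10% FBS, seeded at 400 cells/well, were treated with a 9-point 3-fold dilution series in duplicate for 7 days at 37 °C, 5% CO2. Viability by CellTiter-Glo luminescence, normalised to DMSO and medium-only controls; IC50 from 4-parameter Hill fit.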

hPARG (C-terminal His6-tag), sequence (Q86W56 whole entry): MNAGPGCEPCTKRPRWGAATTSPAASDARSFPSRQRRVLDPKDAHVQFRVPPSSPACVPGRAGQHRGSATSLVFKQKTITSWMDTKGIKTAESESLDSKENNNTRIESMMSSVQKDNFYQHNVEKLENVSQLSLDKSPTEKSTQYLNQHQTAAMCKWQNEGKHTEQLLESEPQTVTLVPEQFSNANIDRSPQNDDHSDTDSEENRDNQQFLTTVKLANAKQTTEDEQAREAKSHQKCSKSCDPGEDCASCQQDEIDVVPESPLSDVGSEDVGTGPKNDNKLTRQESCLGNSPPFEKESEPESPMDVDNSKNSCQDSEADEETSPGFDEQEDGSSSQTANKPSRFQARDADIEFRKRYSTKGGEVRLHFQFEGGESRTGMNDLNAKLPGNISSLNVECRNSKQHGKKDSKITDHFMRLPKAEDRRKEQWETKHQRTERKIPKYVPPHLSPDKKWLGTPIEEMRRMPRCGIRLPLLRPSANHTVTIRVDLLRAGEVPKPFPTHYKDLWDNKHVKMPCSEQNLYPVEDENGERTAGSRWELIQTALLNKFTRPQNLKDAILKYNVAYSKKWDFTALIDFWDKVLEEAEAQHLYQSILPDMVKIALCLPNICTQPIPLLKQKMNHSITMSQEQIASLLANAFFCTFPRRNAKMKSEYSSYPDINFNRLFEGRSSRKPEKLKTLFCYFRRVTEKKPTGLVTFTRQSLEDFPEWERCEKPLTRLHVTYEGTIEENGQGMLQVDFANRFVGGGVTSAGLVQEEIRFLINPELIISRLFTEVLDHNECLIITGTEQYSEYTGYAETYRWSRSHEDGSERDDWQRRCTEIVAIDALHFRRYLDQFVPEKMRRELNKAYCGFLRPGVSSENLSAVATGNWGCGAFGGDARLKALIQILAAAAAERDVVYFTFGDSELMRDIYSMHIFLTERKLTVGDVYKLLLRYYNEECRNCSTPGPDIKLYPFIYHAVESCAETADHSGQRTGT

C[C@H]1CN(c2ncnc3c2c2ccc(S(=O)(=O)NC4(C)CC4)cc2n3-c2nnc(C(F)F)s2)CCO1 [Example 99, (S)-9-(5-(Difluoromethyl)-1,3,4-thiadiazol-2-yl)-N-(1-methylcyclopropyl)-4-(2-methylmorpholino)-9H-pyrimido[4,5-b]indole-7-sulfonamide]
IC50 [1]: < 100 nM | IC50 (Kuramochi cell line): < 100 nM

CN1CCN(c2ccnc3c2c2ccc(S(=O)(=O)NC4(C#N)CC4)cc2n3-c2nnc(C(F)F)s2)CC1 [Example 198, N-(1-Cyanocyclopropyl)-9-(5-(difluoromethyl)-1,3,4-thiadiazol-2-yl)-4-(4-methylpiperazin-1-yl)-9H-pyrido[2,3-b]indole-7-sulfonamide]
IC50 [1]: < 100 nM | IC50 (Kuramochi cell line): < 100 nM

CC(C)(C)[S+]([O-])N1CCN(c2ncnc3c2c2ccc(S(=O)(=O)NC4(C#N)CC4)cc2n3-c2nnc(C(F)F)s2)CC1 (stereo not shown) [Example 70, 4-(4-(Tert-butylsulfinyl)piperazin-1-yl)-N-(1-cyanocyclopropyl)-9-(5-(difluoromethyl)-1,3,4-thiadiazol-2-yl)-9H-pyrimido[4,5-b]indole-7-sulfonamide]
IC50 [1]: < 100 nM | IC50 (Kuramochi cell line): < 100 nM

N#CC1(NS(=O)(=O)c2ccc3c4c(N5CCN(C(=O)C6CC6)CC5)ncnc4n(-c4nnc(C(F)F)s4)c3c2)CC1 [Example 2, N-(1-Cyanocyclopropyl)-4-(4-(cyclopropanecarbonyl)piperazin-1-yl)-9-(5-(difluoromethyl)-1,3,4-thiadiazol-2-yl)-9H-pyrimido[4,5-b]indole-7-sulfonamide]
IC50 [1]: < 100 nM | IC50 (Kuramochi cell line): < 100 nM

N#CC1(NS(=O)(=O)c2ccc3c4c(N5CCN(C(=O)C6CCC6)CC5)ncnc4n(-c4nnc(C(F)F)s4)c3c2)CC1 [Example 30, N-(1-Cyanocyclopropyl)-4-(4-(cyclobutanecarbonyl)piperazin-1-yl)-9-(5-(difluoromethyl)-1,3,4-thiadiazol-2-yl)-9H-pyrimido[4,5-b]indole-7-sulfonamide]
IC50 [1]: < 100 nM | IC50 (Kuramochi cell line): 100 to 1000 nM

CC(C)C(=O)N1CCC(c2ccnc3c2c2ccc(S(=O)(=O)NC4(C#N)CC4)cc2n3-c2nnc(C(F)F)s2)CC1 [Example 197, N-(1-Cyanocyclopropyl)-9-(5-(difluoromethyl)-1,3,4-thiadiazol-2-yl)-4-(1-isobutyrylpiperidin-4-yl)-9H-pyrido[2,3-b]indole-7-sulfonamide]
IC50 [1]: < 100 nM | IC50 (Kuramochi cell line): 100 to 1000 nM

CN(C)C(=O)c1ccc(-c2ncnc3c2c2ccc(S(=O)(=O)NC4(C#N)CC4)cc2n3-c2nnc(C(F)F)s2)cn1 [Example 97, 5-(7-(N-(1-cyanocyclopropyl)sulfamoyl)-9-(5-(difluoromethyl)-1,3,4-thiadiazol-2-yl)-9H-pyrimido[4,5-b]indol-4-yl)-N,N-dimethylpicolinamide]
IC50 [1]: < 100 nM | IC50 (Kuramochi cell line): < 100 nM

N#CC1(NS(=O)(=O)c2ccc3c4c(N5CCC(O)CC5)ccnc4n(-c4nnc(C(F)F)s4)c3c2)CC1 [Example 80, N-(1-Cyanocyclopropyl)-9-(5-(difluoromethyl)-1,3,4-thiadiazol-2-yl)-4-(4-hydroxypiperidin-1-yl)-9H-pyrido[2,3-b]indole-7-sulfonamide]
IC50 [1]: 100 to 1000 nM | IC50 (Kuramochi cell line): 100 to 1000 nM

CC(C)C(=O)N1C[C@H](C)N(c2ncnc3c2c2ccc(S(=O)(=O)NC4(C#N)CC4)cc2n3-c2nnc(C(F)F)s2)C[C@H]1C [Example 38, N-(1-Cyanocyclopropyl)-9-(5-(difluoromethyl)-1,3,4-thiadiazol-2-yl)-4-((2S,5R)-4-isobutyryl-2,5-dimethylpiperazin-1-yl)-9H-pyrimido[4,5-b]indole-7-sulfonamide]
IC50 [1]: < 100 nM | IC50 (Kuramochi cell line): 100 to 1000 nM

CN(CC(F)(F)F)C(=O)N1CCN(c2ncnc3c2c2ccc(S(=O)(=O)NC4(C#N)CC4)cc2n3-c2nnc(C(F)F)s2)CC1 [Example 42, 4-(7-(N-(1-Cyanocyclopropyl)sulfamoyl)-9-(5-(difluoromethyl)-1,3,4-thiadiazol-2-yl)-9H-pyrimido[4,5-b]indol-4-yl)-N-methyl-N-(2,2,2-trifluoroethyl)piperazine-1-carboxamide]
IC50 [1]: < 100 nM | IC50 (Kuramochi cell line): < 100 nM

N#CC1(NS(=O)(=O)c2ccc3c4c(N5CCN(c6ncccn6)CC5)ncnc4n(-c4nnc(C(F)F)s4)c3c2)CC1 [Example 18, N-(1-Cyanocyclopropyl)-9-(5-(difluoromethyl)-1,3,4-thiadiazol-2-yl)-4-(4-(pyrimidin-2-yl)piperazin-1-yl)-9H-pyrimido[4,5-b]indole-7-sulfonamide]
IC50 [1]: 100 to 1000 nM | IC50 (Kuramochi cell line): 100 to 1000 nM

CC(C)(C)OC(=O)N1CCC(c2ncnc3c2c2ccc(S(=O)(=O)NC4(C#N)CC4)cc2n3-c2nnc(C(F)F)s2)CC1 [Example 86, tert-butyl 4-(7-(N-(1-cyanocyclopropyl)sulfamoyl)-9-(5-(difluoromethyl)-1,3,4-thiadiazol-2-yl)-9H-pyrimido[4,5-b]indol-4-yl)piperidine-1-carboxylate]
IC50 [1]: < 100 nM | IC50 (Kuramochi cell line): 100 to 1000 nM

CC1(NS(=O)(=O)c2ccc3c4c(N5CCN(C(=O)C6CC6)CC5)ncnc4n(-c4nnc(C(F)F)s4)c3c2)CC1 [Example 1, 4-(4-(Cyclopropanecarbonyl)piperazin-1-yl)-9-(5-(difluoromethyl)-1,3,4-thiadiazol-2-yl)-N-(1-methylcyclopropyl)-9H-pyrimido[4,5-b]indole-7-sulfonamide]
IC50 [1]: < 100 nM | IC50 (Kuramochi cell line): 100 to 1000 nM

CC(C)C(=O)N1CCC(c2ncnc3c2c2cc(F)c(S(=O)(=O)NC4(C#N)CC4)cc2n3-c2nnc(C(F)F)s2)CC1 [Example 90, N-(1-Cyanocyclopropyl)-9-(5-(difluoromethyl)-1,3,4-thiadiazol-2-yl)-6-fluoro-4-(1-isobutyrylpiperidin-4-yl)-9H-pyrimido[4,5-b]indole-7-sulfonamide]
IC50 [1]: < 100 nM | IC50 (Kuramochi cell line): < 100 nM

COCC(=O)N1CCC(c2ncnc3c2c2ccc(S(=O)(=O)NC4(C#N)CC4)cc2n3-c2nnc(C(F)F)s2)CC1 [Example 117, N-(1-cyanocyclopropyl)-9-(5-(difluoromethyl)-1,3,4-thiadiazol-2-yl)-4-(1-(2-methoxyacetyl)piperidin-4-yl)-9H-pyrimido[4,5-b]indole-7-sulfonamide]
IC50 [1]: < 100 nM | IC50 (Kuramochi cell line): < 100 nM

N#CC1(NS(=O)(=O)c2ccc3c4c(N5CCN(CC6CC6)C(=O)C5)ncnc4n(-c4nnc(C(F)F)s4)c3c2)CC1 [Example 40, N-(1-Cyanocyclopropyl)-4-(4-(cyclopropylmethyl)-3-oxopiperazin-1-yl)-9-(5-(difluoromethyl)-1,3,4-thiadiazol-2-yl)-9H-pyrimido[4,5-b]indole-7-sulfonamide]
IC50 [1]: < 100 nM | IC50 (Kuramochi cell line): < 100 nM

Cn1ccnc1N1CCN(c2ncnc3c2c2ccc(S(=O)(=O)NC4(C#N)CC4)cc2n3-c2nnc(C(F)F)s2)CC1 [Example 22, N-(1-Cyanocyclopropyl)-9-(5-(difluoromethyl)-1,3,4-thiadiazol-2-yl)-4-(4-(1-methyl-JH-imidazol-2-yl)piperazin-1-yl)-9H-pyrimido[4,5-b]indole-7-sulfonamide]
IC50 [1]: < 100 nM | IC50 (Kuramochi cell line): 100 to 1000 nM

N#CC1(NS(=O)(=O)c2ccc3c4c(N5CCC(N6CCOCC6)[C@@H](F)C5)ncnc4n(-c4nnc(C(F)F)s4)c3c2)CC1 (stereo partly drawn) [Example 209, N-(1-Cyanocyclopropyl)-9-(5-(difluoromethyl)-1,3,4-thiadiazol-2-yl)-4-((3S)-3-fluoro-4-morpholinopiperidin-1-yl)-9H-pyrimido[4,5-b]indole-7-sulfonamide]
IC50 [1]: < 100 nM | IC50 (Kuramochi cell line): < 100 nM

CN1CCC(C(=O)N2CCN(c3ncnc4c3c3ccc(S(=O)(=O)NC5(C#N)CC5)cc3n4-c3nnc(C(F)F)s3)CC2)C1 (stereo not shown) [Example 67, N-(1-Cyanocyclopropyl)-9-(5-(difluoromethyl)-1,3,4-thiadiazol-2-yl)-4-(4-(1-methylpyrrolidine-3-carbonyl)piperazin-1-yl)-9H-pyrimido[4,5-b]indole-7-sulfonamide]
IC50 [1]: < 100 nM | IC50 (Kuramochi cell line): 100 to 1000 nM

CC(C)(O)C(=O)N1CCC(c2ncnc3c2c2ccc(S(=O)(=O)NC4(C#N)CC4)cc2n3-c2nnc(C(F)F)s2)CC1 [Example 118, N-(1-cyanocyclopropyl)-9-(5-(difluoromethyl)-1,3,4-thiadiazol-2-yl)-4-(1-(2-hydroxy-2-methylpropanoyl)piperidin-4-yl)-9H-pyrimido[4,5-b]indole-7-sulfonamide]
IC50 [1]: < 100 nM | IC50 (Kuramochi cell line): < 100 nM

N#CC1(NS(=O)(=O)c2ccc3c4c(C5CCN(C(=O)[C@H]6CCCN6)CC5)ncnc4n(-c4nnc(C(F)F)s4)c3c2)CC1 [Example 125, (R)-N-(1-cyanocyclopropyl)-9-(5-(difluoromethyl)-1,3,4-thiadiazol-2-yl)-4-(1-prolylpiperidin-4-yl)-9H-pyrimido[4,5-b]indole-7-sulfonamide]
IC50 [1]: < 100 nM | IC50 (Kuramochi cell line): 100 to 1000 nM

N#CC1(NS(=O)(=O)c2ccc3c4c(N5CCN(C(=O)N6CCC6)CC5)ncnc4n(-c4nnc(C(F)F)s4)c3c2)CC1 [Example 63, 4-(4-(Azetidine-1-carbonyl)piperazin-1-yl)-N-(1-cyanocyclopropyl)-9-(5-(difluoromethyl)-1,3,4-thiadiazol-2-yl)-9H-pyrimido[4,5-b]indole-7-sulfonamide]
IC50 [1]: < 100 nM | IC50 (Kuramochi cell line): < 100 nM

N#CC1(NS(=O)(=O)c2ccc3c4c(N5CCN6CCOC[C@H]6C5)ncnc4n(-c4nnc(C(F)F)s4)c3c2)CC1 [Example 161, (R)-N-(1-cyanocyclopropyl)-9-(5-(difluoromethyl)-1,3,4-thiadiazol-2-yl)-4-(hexahydropyrazino[2,1-c][1,4]oxazin-8(1H)-yl)-9H-pyrimido[4,5-b]indole-7-sulfonamide]
IC50 [1]: < 100 nM | IC50 (Kuramochi cell line): < 100 nM
